The values that follow come from patent US7049344B2 (Wilex Biotechnology GmbH, priority 2000, dated 2006).

pKi: −log10 of the molar value. Counter-ions that a name gives are not always drawn.

The target of one series is T1, Trypsin (UniProt P00760).
T1 sequence (P00760 1-246): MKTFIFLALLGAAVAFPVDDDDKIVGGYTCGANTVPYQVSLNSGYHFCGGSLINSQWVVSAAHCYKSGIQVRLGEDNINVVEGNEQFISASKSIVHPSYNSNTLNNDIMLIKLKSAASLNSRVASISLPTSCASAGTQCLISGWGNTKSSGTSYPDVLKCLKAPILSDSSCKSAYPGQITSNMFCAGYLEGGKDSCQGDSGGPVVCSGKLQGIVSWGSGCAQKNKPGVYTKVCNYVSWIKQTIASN
The series is described as follows: In-vitro protease inhibition, chromogenic substrate, Dixon Ki. It is filed as biochemical. Particulars: 25° C, pH 8.0; read-out: K1 Trypsin. Here is the method:
(§1) The uPA inhibitor activity was determined by incubating 200 μl of Tris buffer (0.05 mol/l, containing the inhibitor, 0.154 mol/l NaCl, 5% ethanol, pH 8.0), 25 μl of substrate (Pefachrome UK or BZ-β-Ala-Gly-Arg-pNA in H2O; Pentapharm Ltd, Basle, Switzerland) and 50 μl of sc-urokinase (Ribosepharm GmbH, Haan, Germany) or another corresponding protease at 25° C. After 3 min, the reaction was interrupted by adding 25 μl of acetic acid (50%) and absorbance at 405 nm was determined by means of a microplate reader (MR 5000, Dynatech, Denkendorf, Germany). The Ki values were determined by linear regression according to Dixon by means of a computer program. The Ki values are the average of at least three determinations, and the standard deviation was below 25%.

In another series the target is Thrombin (UniProt P00735). The series is described as above. It is filed as biochemical. Particulars: 25° C, pH 8.0; read-out: K1 Thrombin. Here is the method:
as §1

For a further series, the target named is FXA (UniProt P00743). Described as above. It is filed as biochemical. Particulars: 25° C, pH 8.0; read-out: K1 FXA. As for the experimental part: as §1
Another series concerns the target Plasmin (Homo sapiens, UniProt P00747). Described as above. Format: biochemical. Particulars: 25° C, pH 8.0; read-out: K1 Plasmin. Here is the method:
as §1

The target of another series is T2, uPA (sc-urokinase) (Homo sapiens, UniProt P00749).
T2 construct: purchased Ribosepharm GmbH, Haan, Germany
In words: In-vitro inhibition of urokinase, chromogenic substrate, Dixon Ki. It is filed as biochemical. Particulars: 25° C, pH 8.0; average of at least three determinations; read-out: K1 uPA. As for the experimental part: as §1

Series [1] concerns rat breast adenocarcinoma cells. Particulars: after i.v. inoculation of rat breast adenocarcinoma cells; cited from earlier work.
For a further series, the system named is rat prostate cancer. Particulars: syngeneic model of rat prostate cancer; cited from earlier work.
The next series relates to mouse breast cancer. Particulars: cited from earlier work.
Series [2] has as its system DU145 tumors (a prostate adenocarcinoma cell line). Particulars: SCID mice, oral, daily dose of 125 to 250 mg/kg/day; cited from earlier work.

Plasmin, sequence (P00747 581-810 limits assumed, species assumed): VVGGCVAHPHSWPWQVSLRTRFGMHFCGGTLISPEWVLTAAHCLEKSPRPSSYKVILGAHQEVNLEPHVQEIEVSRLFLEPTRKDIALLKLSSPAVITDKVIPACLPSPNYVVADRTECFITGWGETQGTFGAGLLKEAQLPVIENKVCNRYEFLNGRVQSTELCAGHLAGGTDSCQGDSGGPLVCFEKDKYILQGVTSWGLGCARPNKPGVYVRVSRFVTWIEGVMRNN
Plasmin, sequence (P00747 97-580 partner limits assumed, species assumed): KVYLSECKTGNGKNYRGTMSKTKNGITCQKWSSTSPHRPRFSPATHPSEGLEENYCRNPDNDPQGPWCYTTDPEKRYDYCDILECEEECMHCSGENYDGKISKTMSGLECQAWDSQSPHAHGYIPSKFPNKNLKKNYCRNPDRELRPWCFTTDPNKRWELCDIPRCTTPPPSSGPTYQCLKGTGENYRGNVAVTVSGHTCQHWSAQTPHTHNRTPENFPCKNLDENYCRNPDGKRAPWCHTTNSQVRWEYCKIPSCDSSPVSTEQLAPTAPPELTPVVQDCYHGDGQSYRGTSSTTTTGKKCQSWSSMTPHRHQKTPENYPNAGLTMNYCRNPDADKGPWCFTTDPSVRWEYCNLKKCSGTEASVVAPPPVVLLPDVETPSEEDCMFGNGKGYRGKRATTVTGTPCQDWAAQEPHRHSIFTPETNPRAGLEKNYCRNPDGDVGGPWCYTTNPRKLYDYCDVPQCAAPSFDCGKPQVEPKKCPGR

For the molecule `N=C(N)Nc1ccc(CNC(=O)[C@@H](CO)c2ccccc2)cc1` (racemic) [ST-390, N-(4-guanidinobenzyl)-D,L-tropamide Hydrochloride], the pKi is less than 3.00 at Trypsin; less than 3.00 on Thrombin; less than 3.00 at FXA; less than 3.00 on Plasmin; 4.29 on uPA (sc-urokinase).

In the case of `N=C(N)NC(=O)c1nc(Cl)c(N)nc1N` [Amiloride], the “formation of lung metastases” value in series [1] was “prevents the formation of lung metastases”.

Consider `N=C(N)c1cc2c(I)cccc2s1` [B428, 4-iodobenzo[b]thiophene-2-carboxamidine], for which the “tumor growth and metastases formation” value in the series on rat prostate cancer was “decrease of tumor growth and metastases formation”; in the series on mouse breast cancer (syngeneic model of mouse breast cancer) it was “decrease of tumor growth and metastases formation”. For the same molecule, the primary tumor growth result in the series with mouse breast cancer (B428 administered together with the antiestrogen tamoxifen) is “further decrease in primary tumor growth”.

As to `N=C(N)Nc1ccc(CNC(=O)C(C(=O)OCc2ccccc2)C23CC4CC(CC(C4)C2)C3)cc1` (centres unmarked) [ST-100], at uPA (sc-urokinase), the pKi was more than 6.00.

`N=C(N)Nc1ccc(CNC(=O)C(C(=O)OCc2ccccc2)c2ccccc2)cc1` (centres unmarked) [ST-401, N-(4-guanidinobenzyl) 2-(benzyloxycarbonyl)-2-phenylacetamide hydrochloride]: the pKi was less than 3.00 at Thrombin, less than 3.00 at FXA, less than 3.00 at Plasmin and 5.85 at uPA (sc-urokinase).

In the case of `N=C(N)Nc1ccc(CNC(=O)C(C(=O)O)c2ccccc2)cc1` (centres unmarked) [ST-406, N-(4-guanidinobenzyl) 2-(hydroxycarbonyl)-2-phenylacetamide Hydrochloride], on uPA (sc-urokinase), the pKi was more than 5.00.

For `N=C(N)c1ccc(N)cc1` [p-Aminobenzamidine], in [2], the “growth rate of DU145 tumors” value was “distinct decrease” and the side effects entry is “negligible”.
